“Also recorded” adds a separate entry of the source. Values belong to the compound of their own block, whether it stands above or below them.
Columns and labels:
[1] = target: T1, human Phgdh (Homo sapiens, UniProt O43175); experiment: Phgdh activity assay (colorimetric kit, NADH at 450 nm); format: biochemical; details: for Phgdh activation (in words): 25 μM compound
T1 construct: purchased BPS bioscience 71079
T1 sequence (O43175 1-533): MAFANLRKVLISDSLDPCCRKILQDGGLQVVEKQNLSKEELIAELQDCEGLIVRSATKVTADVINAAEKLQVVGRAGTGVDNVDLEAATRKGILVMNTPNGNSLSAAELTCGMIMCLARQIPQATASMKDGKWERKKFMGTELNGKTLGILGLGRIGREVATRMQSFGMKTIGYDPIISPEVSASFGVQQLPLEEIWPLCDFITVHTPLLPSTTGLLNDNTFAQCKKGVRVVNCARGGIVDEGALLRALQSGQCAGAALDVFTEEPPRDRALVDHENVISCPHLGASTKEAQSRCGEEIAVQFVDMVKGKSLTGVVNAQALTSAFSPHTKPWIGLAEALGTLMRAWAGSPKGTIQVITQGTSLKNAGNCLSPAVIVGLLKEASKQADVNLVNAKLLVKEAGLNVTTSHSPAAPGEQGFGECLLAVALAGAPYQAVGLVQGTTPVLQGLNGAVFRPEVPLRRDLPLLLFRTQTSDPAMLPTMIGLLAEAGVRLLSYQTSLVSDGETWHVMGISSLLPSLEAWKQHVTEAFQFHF
Protocol: Phgdh enzyme activity upon drug treatment was tested using human Phgdh (BPS bioscience, 71079) and a specific colorimetric Phgdh activity kit (Biovision, K569). The Phgdh inhibitor Disulfiram [Spillier et al. (2019) Sci Rep. 9, 4737], served as […].
Briefly, Human Phgdh enzyme was diluted in assay buffer at a concentration of 0.38 mg/mL. Next, 5 μl of this Phgdh enzyme solution and 5 μL of the compounds in 5% DMSO and assay buffer was added (to wells of flat bottom 96-well plate). Subsequently, 40 μl Phgdh assay buffer (Biovision) and 50 μl Phgdh reaction mix (prepared as described in the protocol of the Phgdh assay kit K569, Biovision) was added. The final amount of enzyme per reaction was 0.35 μM. Afterwards, absorbance at 450 nm, indicative for the amount of NADH generated, was measured over time. NADH is one of the end products of the reaction. In between measurements, the plate was incubated at 37° C., protected from light.

[2] = tested on: EKP induced seizures in zebrafish larvae; experiment: Zebrafish drug resistant epilepsy model: ethyl ketopentenoate (EKP), locomotor tracking; format: in vivo; details: for activity after EKP exposure (locomotor activity relative to EKP only): 1 μM compound, 300 μM EKP, 30 min recording; for effect on EKP induced seizures (locomotor activity, actinteg units): 7 dpf larvae, compound at MTC (CQ 3 μM, CH 3.125 μM, PBT-1033 6 μM) 2 h before 300 μM EKP
Protocol: Larvae (7 dpf) in 100 μl VHC were arrayed individually in a 96-well plate (tissue culture plate, at bottom, Falcon, USA) and kept in the light at 28° C. Two-hours before tracking compound (clioquinol (CQ), chloroxine (CH), PBT-1033) and/or inhibitor (disulfiram (DS), CBR) was added at their MTC to the larvae and afterwards the 96-well plates were placed in darkness at 28° C. for 2 hours. Just prior to tracking 100 µl of VHC or EKP stock solution was added to each well to obtain a EKP concentration of 300 μM. The plates were placed in an automated video tracking device (ZebraBox™ apparatus; Viewpoint, Lyon, France) and the locomotor behavior of the larvae was monitored for 40 min in the dark at 28° C. Locomotor activity was quantified using ZebraLab™ software (Viewpoint, Lyon, France) and expressed in “actinteg” units per 5-min interval. For each larvae, 30 min of tracking data after the effect of EKP was initiated was used. The actinteg value is defined as the sum of all image pixel changes detected during the time window.
Locomotor activity was quantified using ZebraLab™ software (Viewpoint, Lyon, France) and expressed in mean “actinteg” units per 5-min+/−SEM during a 30 min recording interval relative to EKP only. Statistical analysis: one-way ANOVA with Dunnett's multiple comparison test. A statistical difference is indicated by: ****p<0.0001. For each condition n=10 larvae were used and the experiment was performed two times (n total=20 per condition).

[3] = tested on: 6-Hz (44 mA) psychomotor seizures in NMRI mice; experiment: Mouse 6-Hz (44 mA) psychomotor seizure model; format: in vivo; details: i.p. injection 60 min before corneal stimulation
Protocol: Male NMRI mice (weight 25-30 g) were acquired from Charles River Laboratories (France) and housed in polyacrylic cages under a 14/10-hour light/dark cycle at 21° C. The animals were fed a pellet diet and water ad libitum, and were allowed to acclimate for 1 week before experimental procedures were conducted. Prior to the experiment, mice were isolated in polyacrylic cages with a pellet diet and water ad libitum for habituation overnight in the experimental room, to minimize stress. The antiseizure activity of compounds was investigated in the mouse 6-Hz (44 mA) psychomotor seizure model as described before [Copmans et al (2018) ACS Chem Neurosci. 9, 1652-1662.]. In brief, 500 μl (injection volume was adjusted to the individual weight) of VHC (0.5% sodiumcarboxymethylcellulose (NaCMC)/Tween80 in 0.9% NaCl) or treatment (valproate or clioquinol dissolved in VHC) was i.p. injected in NMRI mice and after 60 min psychomotor seizures were induced by corneal electrical stimulation (6 Hz, 0.2 ms rectangular pulse width, 3 s duration, 44 mA) using an ECT Unit 5780 (Ugo Basile, Comerio, Italy). Seizure durations were measured during the experiment by experienced researchers, familiar with the different seizure behaviours. In addition, seizure durations were determined by blinded video analysis to confirm or correct the initial observations. Data are expressed as mean±SD.

[4] = cited from earlier work
[5] = cited from earlier work; remark: listed apart in the source
[6] = cited from earlier work; remark: listed apart in the source
[7] = tested on: cAMP-transporting ABC pumps; details: possible targets ABCC4 and ABCC11; cited from earlier work
[8] = tested on: Scn1Lab mutant larvae; experiment: Zebrafish model of Dravet syndrome, locomotor behavioural assay; format: in vivo; details: 6 dpf larvae, MTC concentration in 0.1% DMSO, 2 h incubation, normalized to VHC-treated mutants
Protocol: 6 dpf Scn1Lab mutant larvae (selected by their darker appearance, lack of a swim bladder and slight curvature of the body on 6 dpf) and WT larvae were arrayed in a 96-well plate (one larva per well) and treated with 100 μl VHC (0.1% DMSO) or compound (MTC concentration in 0.1% DMSO). After incubation at 28° C. on a 14/10 h light/dark cycle for 2 h, the plates were immediately placed in an enclosed tracking device (ZebraBox Viewpoint, France) and chamber habituation for 30 min. The locomotor activity of the larvae were evaluated during 10 min under dark conditions and quantified by the lardist parameter (total distance in large movements) and plotted in cm (ZebraLab™ software, Viewpoint, Lyon, France). Data was collected from 3-4 larvae per treatment condition. The locomotor data were analysed by normalizing the locomotor activity of treated larvae against VHC-treated Scn1Lab mutant larvae.

Compound: Oc1c(I)cc(Cl)c2cccnc12 [clioquinol]
effect on the oxido-reduction reaction toward NADH generation ([1]; compound itself, data not shown): does not affect | activity after EKP exposure (locomotor activity relative to EKP only) [2]: superior activity | effect on EKP induced seizures (locomotor activity, actinteg units) [2]: significantly reduced EKP induced seizures | seizure duration [3]: trend towards reduced seizure duration | dose/concentration ratio in humans ([4]; doses of 250 or 500 mg): 0.64-1.4 | concentrations of free clioquinol in humans relative to hamsters (mean) ([4]; in vivo): 33 times | dose that did not produce toxicity in animals ([5]; animals, over 30 days, in all but one study): 100 mg/(kg day) | dose with toxicity observed in a week ([5]; dogs, in a week): 400 mg/(kg day) | dose with neurological toxicity in dogs ([5]; dogs, treated for over a month): exceeding 200 mg/(kg day) | dose with no apparent adverse effects ([6]; Alzheimer clinical trial, for weeks (10 mg/kg/day)): 750 mg/day | dose with dose-limiting neurotoxicity and abdominal pain ([6]; humans (42.5 mg/kg/day)): 3200 mg/day | dose received by patients without toxicity ([6]; humans, per day (~50 mg/(kg day))): 3.5 g | effect on cAMP-transporting ABC pumps [7]: inhibits

Compound: O=C(O)c1cc(O)c2ccc(Cl)cc2n1 [7-chloro-kynurenic acid]
Phgdh activation (in words) [1]: could not activate Phgdh; also recorded: no induced activation of PHGDH | activity after EKP exposure (locomotor activity relative to EKP only) [2]: not Active

Phgdh activation (in words) [1]: activity comparable to clioquinol
Compound: Oc1ccc(Cl)c2cccnc12 [cloxyquin, 5-Chloro-8-quinolinol]

Compound: Oc1c(Cl)cc(Cl)c2cccnc12 [chloroxine]
effect on EKP induced seizures (locomotor activity, actinteg units) [2]: significantly reduced EKP induced seizures | reduction of epileptiform locomotor activity of Scn1Lab mutant group [8]: > 60%

Phgdh activation (in words) [1]: could not activate Phgdh
Compound: O=C(Oc1cccc2cccnc12)c1ccccc1 [benzoxyquine]

— patent US20230103644A1, “TREATMENT OF EPILEPSY” (Katholieke Universiteit Leuven, priority 2020, published 2023)
